Laboratory results from article PMC8228600, “Design, Synthesis, In Vitro and In Vivo Evaluation of Heterobivalent SiFAlin-Modified Peptidic Radioligands Targeting Both Integrin αvβ3 and the MC1 Receptor—Suitable for the Specific Visualization of Melanomas?” (Pharmaceuticals, 2021).
Like-named read-outs stand apart in the source and are kept apart here. Where a SMILES comes first, the peptide text is derived from it. [ ]: non-standard residue; d: D form.

Columns and labels:
[1] = target: T1, MC1R (Mus musculus, UniProt Q01727); experiment: Competitive displacement assay on MC1R-positive B16F10 cells vs [125I]I-NDP; type: binding, murine
T1 construct: host or cells: B16F10 murine melanoma cells (whole cells)
Experimental: (§1) As in vitro receptor affinities represent an important parameter for the in vivo tumor uptake of radiotracers, the binding affinities of 1–6 were determined to both target receptors—integrin αvβ3 and the MC1R—in competitive displacement assays.
(§2) Murine melanoma cells (B16F10) and human glioblastoma cells (U87MG) as well as Dulbecco’s Modified Eagle’s Medium (DMEM) and Eagle’s Minimum Essential Medium (EMEM) were purchased from ATCC (Wesel, Germany). Fetal calf serum (FCS) was obtained from Bio&SELL (Feucht, Germany); phosphate-buffered saline (PBS), 1,10-phenanthroline, tris(hydroxymethyl)aminomethane hydrochloride (Tris·HCl) and manganese chloride (MnCl2) were obtained from Sigma-Aldrich (Taufkirchen, Germany); penicillin/streptomycin (pen/strep) and 0.25% Trypsin with 0.02% EDTA-solution in PBS were obtained from Gibco (Schwerte, Germany); 2-(4-(2-hydroxyethyl)-1-piperazinyl)-ethanesulfonic acid (HEPES) was obtained from Gerbu (Heidelberg, Germany); bovine serum albumin (BSA), sodium chloride (NaCl), calcium chloride (CaCl2) and magnesium chloride (MgCl2) were obtained from Carl Roth (Karlsruhe, Germany). [^125I]I-NDP (NEX352, 81.4 GBq/μmol) and [^125I]I-echistatin (NEX083, 81.4 GBq/μmol) were purchased from PerkinElmer (Rodgau, Germany). γ-counting was performed using a 2480 Wizard^2 gamma counter system from PerkinElmer.
(§3) To determine the binding affinity to the respective receptor, competitive displacement studies were performed on MC1R-expressing B16F10 and on integrin αvβ3-expressing U87MG cells. Each compound was evaluated at least three times, each experiment being performed in triplicate. As radioligands, [^125I]I-NDP (81.4 GBq/μmol) and [^125I]I-echistatin (81.4 GBq/μmol) were used as competitors. First, the Millipore MultiScreen 96-well filter plate was incubated with 200 μL/well of a BSA/PBS (1/99, w/v) solution at 25 °C for 1 h. After preparing the binding buffers (DMEM with 25 mM HEPES, 0.3 mM 1,10-phenanthroline and 0.2% BSA; EMEM with 20 mM Tris·HCl, 150 mM NaCl, 2 mM CaCl2, 1 mM MgCl2, 1 mM MnCl2 and 0.1% BSA), the dilution series of the HBPLs 1–6 (0.04–4 μM and 2–400 μM) and the reference agents 36–39 (0.01–1 μM and 0.04–400 μM) were prepared in the respective binding buffer. The solution of the respective radioligand was prepared by adding 55–75 kBq of the respective ^125I-labeled competitor to 3.5 mL of binding buffer. The respective cells were harvested and re-suspended in the binding buffer to give a cell concentration of 2 × 10^6/mL. After the BSA solution was filtered using the Millipore Multiscreen vacuum manifold, 50 μL of a cell suspension containing 10^5 cells were seeded in each well. Subsequently, 25 μL of the ^125I-labeled competitor solution (0.018 kBq/μL) and 25 μL of the respective compound to be tested were added. The compound to be tested was added in eleven increasing concentrations, whereas the 12th well contained no test compound to ensure the 100% binding of the ^125I-labeled competitor. After incubation of the plate for another hour at 25°C, the solution was filtrated using the Millipore Multiscreen vacuum manifold, and the cells were washed three times with cold PBS (1 × 200 μL, 2 × 100 μL). Using a Millipore MultiScreen disposable punch and a Millipore MultiScreen punch kit, the filters of the well plate were collected in γ-counter tubes separately and measured by γ-counting. The determination of the half-maximal inhibitory concentration (IC50) values was performed by fitting the obtained data via nonlinear regression using GraphPad Prism (v6.05).

[2] = target: T2, integrin αvβ3 (Homo sapiens, UniProt P05106+P06756); experiment: Competitive displacement assay on integrin αvβ3-positive U87MG cells vs [125I]I-echistatin; type: binding
T2 construct: host or cells: U87MG human glioblastoma cells (whole cells)
Experimental: as §1, §2, §3

Row | Compound | IC50 [1] [nM] | IC50 [2] [nM] | also measured
1 | CCCC[C@H](NC(=O)CNC(=O)CNC(=O)CCOCCOCCC(=O)NCCCN(CCCNC(=O)CCOCCOCCC(=O)NCCCC[C@@H]1NC(=O)[C@@H](Cc2ccccc2)NC(=O)[C@H](CC(=O)O)NC(=O)CNC(=O)[C@H](CCCNC(=N)N)NC1=O)CC(=O)N[C@@H](CCCCNC(=O)CCC[N+](C)(C)Cc1ccc([Si](F)(C(C)(C)C)C(C)(C)C)cc1)C(N)=O)C(=O)N[C@H]1CC(=O)NCCCC[C@@H](C(N)=O)NC(=O)[C@H](Cc2c[nH]c3ccccc23)NC(=O)[C@H](CCCNC(=N)N)NC(=O)[C@@H](Cc2ccccc2)NC(=O)[C@H](Cc2c[nH]cn2)NC1=O [HBPL 1, SiFAlin-APG-PEG1-c(RGDfK)/GG-Nle-c(DHfRWK)] | 1.74 ± 0.25 | 2880 ± 757 | 
2 | CCCC[C@H](NC(=O)CNC(=O)CNC(=O)CCOCCOCCOCCOCCC(=O)NCCCN(CCCNC(=O)CCOCCOCCOCCOCCC(=O)NCCCC[C@@H]1NC(=O)[C@@H](Cc2ccccc2)NC(=O)[C@H](CC(=O)O)NC(=O)CNC(=O)[C@H](CCCNC(=N)N)NC1=O)CC(=O)N[C@@H](CCCCNC(=O)CCC[N+](C)(C)Cc1ccc([Si](F)(C(C)(C)C)C(C)(C)C)cc1)C(N)=O)C(=O)N[C@H]1CC(=O)NCCCC[C@@H](C(N)=O)NC(=O)[C@H](Cc2c[nH]c3ccccc23)NC(=O)[C@H](CCCNC(=N)N)NC(=O)[C@@H](Cc2ccccc2)NC(=O)[C@H](Cc2c[nH]cn2)NC1=O [HBPL 2, SiFAlin-APG-PEG3-c(RGDfK)/GG-Nle-c(DHfRWK)] | 0.99 ± 0.11 | 1300 ± 288 | 
3 | CCCC[C@H](NC(=O)CNC(=O)CNC(=O)CCOCCOCCOCCOCCOCCOCCC(=O)NCCCN(CCCNC(=O)CCOCCOCCOCCOCCOCCOCCC(=O)NCCCC[C@@H]1NC(=O)[C@@H](Cc2ccccc2)NC(=O)[C@H](CC(=O)O)NC(=O)CNC(=O)[C@H](CCCNC(=N)N)NC1=O)CC(=O)N[C@@H](CCCCNC(=O)CCC[N+](C)(C)Cc1ccc([Si](F)(C(C)(C)C)C(C)(C)C)cc1)C(N)=O)C(=O)N[C@H]1CC(=O)NCCCC[C@@H](C(N)=O)NC(=O)[C@H](Cc2c[nH]c3ccccc23)NC(=O)[C@H](CCCNC(=N)N)NC(=O)[C@@H](Cc2ccccc2)NC(=O)[C@H](Cc2c[nH]cn2)NC1=O [HBPL 3, SiFAlin-APG-PEG5-c(RGDfK)/GG-Nle-c(DHfRWK)] | 3.44 ± 0.09 | 1910 ± 70 | 
4 | CCCC[C@H](NC(=O)CNC(=O)CNC(=O)CCOCCOCCOCCOCCOCCOCCOCCOCCOCCC(=O)NCCCN(CCCNC(=O)CCOCCOCCOCCOCCOCCOCCOCCOCCOCCC(=O)NCCCC[C@@H]1NC(=O)[C@@H](Cc2ccccc2)NC(=O)[C@H](CC(=O)O)NC(=O)CNC(=O)[C@H](CCCNC(=N)N)NC1=O)CC(=O)N[C@@H](CCCCNC(=O)CCC[N+](C)(C)Cc1ccc([Si](F)(C(C)(C)C)C(C)(C)C)cc1)C(N)=O)C(=O)N[C@H]1CC(=O)NCCCC[C@@H](C(N)=O)NC(=O)[C@H](Cc2c[nH]c3ccccc23)NC(=O)[C@H](CCCNC(=N)N)NC(=O)[C@@H](Cc2ccccc2)NC(=O)[C@H](Cc2c[nH]cn2)NC1=O [HBPL 4, SiFAlin-APG-PEG8-c(RGDfK)/GG-Nle-c(DHfRWK)] | 6 ± 0.47 | 2030 ± 323 | 
5 | CCCC[C@H](NC(=O)CNC(=O)CNC(=O)COCC(=O)NCCCN(CCCNC(=O)COCC(=O)NCCCC[C@@H]1NC(=O)[C@@H](Cc2ccccc2)NC(=O)[C@H](CC(=O)O)NC(=O)CNC(=O)[C@H](CCCNC(=N)N)NC1=O)CC(=O)N[C@@H](CCCCNC(=O)CCC[N+](C)(C)Cc1ccc([Si](F)(C(C)(C)C)C(C)(C)C)cc1)C(N)=O)C(=O)N[C@H]1CC(=O)NCCCC[C@@H](C(N)=O)NC(=O)[C@H](Cc2c[nH]c3ccccc23)NC(=O)[C@H](CCCNC(=N)N)NC(=O)[C@@H](Cc2ccccc2)NC(=O)[C@H](Cc2c[nH]cn2)NC1=O [HBPL 5, SiFAlin-APG-DIG-c(RGDfK)/GG-Nle-c(DHfRWK)] | 2.05 ± 0.35 | 5900 ± 722 | 
6 | CCCC[C@H](NC(=O)CNC(=O)CNC(=O)[C@H](CCC(=O)O)NC(=O)CNC(=O)[C@H](CCC(=O)O)NC(=O)CNC(=O)[C@H](CCC(=O)O)NC(=O)C(=O)NCCCN(CCCNC(=O)C(=O)N[C@@H](CCC(=O)O)C(=O)NCC(=O)N[C@@H](CCC(=O)O)C(=O)NCC(=O)N[C@@H](CCC(=O)O)C(=O)NCCCC[C@@H]1NC(=O)[C@@H](Cc2ccccc2)NC(=O)[C@H](CC(=O)O)NC(=O)CNC(=O)[C@H](CCCNC(=N)N)NC1=O)CC(=O)N[C@@H](CCCCNC(=O)CCC[N+](C)(C)Cc1ccc([Si](F)(C(C)(C)C)C(C)(C)C)cc1)C(N)=O)C(=O)N[C@H]1CC(=O)NCCCC[C@@H](C(N)=O)NC(=O)[C@H](Cc2c[nH]c3ccccc23)NC(=O)[C@H](CCCNC(=N)N)NC(=O)[C@@H](Cc2ccccc2)NC(=O)[C@H](Cc2c[nH]cn2)NC1=O [HBPL 6, SiFAlin-APG-Ox-EGEGE-c(RGDfK)/GG-Nle-c(DHfRWK)] | 4.18 ± 0.32 | > 100000 | IC50 (U87MG) ([2]; integrin αvβ3-positive U87MG cells, competitor [125I]I-echistatin, mean ± SD): could not be determined
7 | N=C(N)NCCC[C@@H]1NC(=O)[C@H](CS)NC(=O)[C@@H](Cc2ccccc2)NC(=O)[C@H](CC(=O)O)NC(=O)CNC1=O [c(RGDfC), reference compound] (cyclo(RGD[dF]C)) |  |  | IC50 ([2]; integrin αvβ3-positive U87MG cells, competitor [125I]I-echistatin, mean ± SD, read-out: IC50 (U87MG)): 1490 ± 210 nM
8 | N=C(N)NCCC[C@@H]1NC(=O)[C@H](CCCCN)NC(=O)[C@@H](Cc2ccccc2)NC(=O)[C@H](CC(=O)O)NC(=O)CNC1=O [c(RGDfK), cyclic Arg-Gly-Asp-DPhe-Lys, reference compound] |  |  | receptor-specific binding to MC1R ([1]; B16F10 cells, same conditions as IC50 assay (Figure S92)): no receptor-specific binding
9 | Gly-Gly-Nle-cyclic Asp-His-DPhe-Arg-Trp-Lys [GG-Nle-c(DHfRWK), reference compound] |  |  | receptor-specific binding to integrin αvβ3 ([2]; U87MG cells, same conditions as IC50 assay (Figure S92)): no receptor-specific binding
10 | NDP: superpotent synthetic analog of the endogenous ligand α-MSH; reference and blocking substance [reference compound] |  |  | IC50 ([1]; MC1R-positive B16F10 cells, competitor [125I]I-NDP, mean ± SD, read-out: IC50 (B16F10)): 0.17 ± 0.04 nM
